# Patent US7345049B2, “Phenylalanine derivatives” (Ajinomoto Co., Inc., priority 2003, dated 2008)
# Columns and labels:
# [1] = Pharmacokinetic study by intravenous administration to a rat; type: in vivo; details: plasma, 1 mg/kg; intravenous single dose, 1 mg/mL solution at 1 mL/kg, Wistar rat, active form; read-out: Total body clearance CLtot (converted)
# Method: Pharmacokinetic Study by Intravenous Administration to a Rat
# After the compounds of the present invention wherein R11 to R141 are a hydroxyl group, which were active forms, were weighed by a scale, they were adjusted by dimethylsulfoxide to become 10 mg/mL. Polyethylene glycol 400 and distilled water were added thereto to prepare 1 mg/mL of an administration solution. 1 mg/mL of the administration solution was intravenously administered as a single dose to a Wistar rat in an amount of 1 mL/kg. 1, 5, 10, 30, 60 and 180 minutes later, the drug concentration in the blood plasma obtained by blood drawing from its cervical vein over time under anesthesia was determined with LC/MS. From the obtained results, the area under the plasma concentration time curve from zero to time infinity (AUCinf (iv)) was calculated in accordance with the trapezoidal method of pharmacokinetic analysis. The total body clearance (CLtot, [L/hr/kg]) was calculated as an index of drug disappearance in the blood plasma from a dose [mg/kg] and AUC [μg×hr/mL] in accordance with the formula: CLtot=Dose÷AUCinf(iv).
# [2] = target: T1, VCAM-1/α4β1 integrin binding (Homo sapiens, UniProt P05556+P13612); test: Assay of antagonistic activity to VCAM-1/α4β1 integrin binding under the existence of blood serum (Jurkat cell adhesion to VCAM-1/Fc); type: cell-based; details: Jurkat cells, recombinant human VCAM-1/Fc, 50% human blood serum
# T1 construct: Jurkat (ATCC TIB-152), known to express integrin α4β1; endogenous in cells; host or cells: Jurkat (ATCC TIB-152)
# T1 sequence (P13612 34-1032): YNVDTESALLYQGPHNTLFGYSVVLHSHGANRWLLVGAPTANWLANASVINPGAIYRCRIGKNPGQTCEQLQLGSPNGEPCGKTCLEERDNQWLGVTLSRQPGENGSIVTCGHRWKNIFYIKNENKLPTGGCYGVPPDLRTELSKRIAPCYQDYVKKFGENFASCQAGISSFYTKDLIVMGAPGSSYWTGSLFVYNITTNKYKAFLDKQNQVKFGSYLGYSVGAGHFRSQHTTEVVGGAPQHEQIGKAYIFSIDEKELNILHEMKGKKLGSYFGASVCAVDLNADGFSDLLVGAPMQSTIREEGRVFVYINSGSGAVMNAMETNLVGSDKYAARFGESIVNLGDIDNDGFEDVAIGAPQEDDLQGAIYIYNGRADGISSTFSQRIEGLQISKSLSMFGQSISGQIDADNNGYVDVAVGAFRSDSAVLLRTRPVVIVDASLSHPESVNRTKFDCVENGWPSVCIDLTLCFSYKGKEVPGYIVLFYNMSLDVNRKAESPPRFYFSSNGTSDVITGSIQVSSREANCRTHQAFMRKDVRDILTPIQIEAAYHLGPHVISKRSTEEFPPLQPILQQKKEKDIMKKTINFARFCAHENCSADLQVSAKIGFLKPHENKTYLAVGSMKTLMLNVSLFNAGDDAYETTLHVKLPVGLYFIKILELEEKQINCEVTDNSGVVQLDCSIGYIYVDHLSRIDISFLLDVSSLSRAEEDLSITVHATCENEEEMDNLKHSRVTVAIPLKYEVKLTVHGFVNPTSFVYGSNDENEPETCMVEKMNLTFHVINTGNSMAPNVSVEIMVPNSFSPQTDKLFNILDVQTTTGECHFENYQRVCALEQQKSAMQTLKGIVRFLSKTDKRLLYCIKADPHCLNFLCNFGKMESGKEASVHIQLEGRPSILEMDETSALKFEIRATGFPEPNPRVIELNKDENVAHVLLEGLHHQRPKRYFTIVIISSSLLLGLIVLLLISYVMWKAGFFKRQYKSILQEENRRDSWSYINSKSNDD
# T1 sequence (P05556 21-798): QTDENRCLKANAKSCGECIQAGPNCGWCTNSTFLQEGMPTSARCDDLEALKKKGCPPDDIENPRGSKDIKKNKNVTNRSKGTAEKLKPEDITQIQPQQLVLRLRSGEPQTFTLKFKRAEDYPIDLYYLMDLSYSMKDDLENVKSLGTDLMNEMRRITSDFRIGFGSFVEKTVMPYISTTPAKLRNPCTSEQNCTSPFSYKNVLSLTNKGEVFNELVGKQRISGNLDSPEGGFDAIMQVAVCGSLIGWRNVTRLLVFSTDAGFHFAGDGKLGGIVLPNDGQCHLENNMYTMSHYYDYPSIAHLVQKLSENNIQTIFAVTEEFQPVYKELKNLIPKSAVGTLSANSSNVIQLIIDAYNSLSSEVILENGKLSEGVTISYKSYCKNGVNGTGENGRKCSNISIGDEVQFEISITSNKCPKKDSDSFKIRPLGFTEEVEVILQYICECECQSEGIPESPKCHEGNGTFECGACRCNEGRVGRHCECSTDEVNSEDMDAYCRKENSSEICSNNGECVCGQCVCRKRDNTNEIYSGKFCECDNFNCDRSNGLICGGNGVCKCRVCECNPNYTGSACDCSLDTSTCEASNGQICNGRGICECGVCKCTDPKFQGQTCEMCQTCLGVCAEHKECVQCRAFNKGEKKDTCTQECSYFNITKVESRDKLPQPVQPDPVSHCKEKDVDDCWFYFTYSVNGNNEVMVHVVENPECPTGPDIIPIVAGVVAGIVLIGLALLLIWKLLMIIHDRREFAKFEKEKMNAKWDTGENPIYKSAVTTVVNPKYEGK
# Method: Assay of Antagonistic Activity to VCAM-1/α4β1 Integrin Binding Under the Existence of Blood Serum
# The capacity of a test substance antagonistic to the binding of cell strain of human T cells, Jurkat (ATCC TIB-152), known to express integrin α4β1, to VCAM-1 was determined.
# Fifty μl/well of a solution (500 ng/ml) of recombinant human VCAM-1/Fc (R & D systems) diluted with buffer A (0.1 M NaHCO3, pH 9.6) was added to a 96-well microtiter plate (Nunc Maxisorp). After the incubation at 4° C. overnight and washing once with PBS, a buffer (buffer B) obtained by diluting Block Ace (Snow Brand Milk Products Co., Ltd.) with PBS to ½ concentration was added in an amount of 150 μl/well. After the incubation at room temperature for 2 hours, buffer B was removed and the plate was washed with PBS once.
# Jurkat cells were washed with Dulbecco modified Eagle medium (SIGMA, hereinafter referred to as “DMEM”) once. Then, the cells were again suspended in a binding buffer (DMEM containing 20 mM HEPES, 0.1% BSA, 2 mM MnCl2 and 50% human blood serum (Sigma)) to become 1×10^6 cells/mL.
# Sixty μl of a test substance of various concentrations obtained by the dilution with the binding buffer was added to a round-bottom, 96-well plate (IWAKI). Immediately thereafter, 60 μl of the Jurkat cells (1×10^6 cells/ml) were added thereto and shaken on a plate shaker (IKA-Labortechnik, IKA-SCHUTTLER MTS-4) at 1000 rpm for 10 seconds. In 120 μL of the cell suspension to which the test substance was added, each 100 μL thereof was transferred on the VCAM-1/Fc-coated plate and incubated in dark place at room temperature for 60 minutes. After the shaking on the plate shaker at 1000 rpm for 30 seconds, the solution was immediately removed. Then, the unbound cells were removed by washing them with PBS once. A buffer C (PBS containing 0.82% Triton X-100) was added to the plate in an amount of 70 μL/well. After the shaking on the plate shaker at 1000 rpm for 5 minutes, the bound Jurkat cells were lysed. After centrifuging the cells on a plate centrifuge (SIGMA 4-15C) at room temperature at 2500 rpm for 5 minutes, 50 μL of supernatant thereof was transferred to a 96-well microtiter plate (Nunc Maxisorp). Each 50 μL of Substrate Buffer (Promega, CytoTox 96 Non-Radioactive Cytotoxicity Assay) was added thereto, shaken on a plate shaker at 1000 rpm for 10 seconds and reacted in dark place at room temperature for 30 minutes. Then, each 50 μL of Stop Solution (Promega, CytoTox 96 Non-Radioactive Cytotoxicity Assay) was added thereto and shaken on a plate shaker at 1000 rpm for 10 seconds. […] The absorbance thus obtained detects an activity of lactate dehydrogenase (LDH) dissolved in the supernatant of each well. Namely, the absorbance is proportional to the number of remaining Jurkat cells on the plate via the binding to VCAM-1. The test was conducted in duplicate and the binding rate of each test substance in various concentrations was determined while the absorbance of the test substance-free well was determined to be 100% and the absorbance of the Jurkat-cell-free well was determined to be 0%. The concentration for the 50% inhibition of binding, IC50, was calculated.
clearance [1] [mL/min/kg],IC50 [2] [nM],SMILES
5.17,10.5,"CN(C)Cc1ccc2c(=O)n(-c3ccc(C[C@H](NC(=O)c4c(Cl)cccc4Cl)C(=O)O)cc3)c(=O)n(C)c2c1.O=C(O)C(F)(F)F [Example 34, N-(2,6-dichlorobenzoyl)-4-[7-[(dimethylamino)methyl]-1-methyl-2,4-quinazoline-dione-3-yl]-L-phenylalanine Trifluoroacetate]"
3.17,,"Cn1c(=O)n(-c2ccc(C[C@H](NC(=O)c3c(Cl)cccc3Cl)C(=O)O)cc2)c(=O)c2ccc(N3CCCC3)cc21.O=C(O)C(F)(F)F [Example 40, N-(2,6-dichlorobenzoyl)-4-[1-methyl-7-(pyrrolidine-1-yl)-2,4-quinazoline-dione-3-yl]-L-phenylalanine trifluoroacetate]"

# Continued, compound first:
SMILES,clearance [1] [mL/min/kg],IC50 [2] [nM]
Cn1c(=O)n(-c2ccc(C[C@H](NC(=O)c3c(Cl)cccc3Cl)C(=O)O)cc2)c(=O)c2cc(-n3ccnc3N)ccc21 [Example 59],5.33,
CCNCc1ccc2c(c1)c(=O)n(-c1ccc(C[C@H](NC(=O)c3c(Cl)cccc3Cl)C(=O)O)cc1)c(=O)n2C [Example 54],4.5,14.5
"CSc1ccc2c(c1)c(=O)n(-c1ccc(C[C@H](NC(=O)c3c(Cl)cccc3Cl)C(=O)O)cc1)c(=O)n2C [Example 37, N-(2,6-dichlorobenzoyl)-4-[1-methyl-6-(methylthio)-2,4-quinazoline-dione-3-yl]-L-phenylalanine]",5.5,
CNCc1ccc2c(c1)c(=O)n(-c1ccc(C[C@H](NC(=O)c3c(Cl)cccc3Cl)C(=O)O)cc1)c(=O)n2C [Example 99],3.83,11.2
